Series [1] deals with T. cruzi intracellular amastigotes. In words: In vitro infection assay (infected peritoneal macrophages). Particulars: amastigotes in infected macrophages treated for 6 h, mean ± SD. Type of series: cell-based, Trypanosoma cruzi. As for the experimental part: Peritoneal exudate macrophages were obtained by washing, with cold PBS, the peritoneal cavity of BALB/c mice 4–5 days after injection of 3% thioglycolate (Sigma-Aldrich) in saline (1.5 mL per mice). Then, cells were plated at a cell density of 2 × 10^5 cells/well in 24-well plates with sterile coverslips on the bottom in RPMI supplemented with 10% FBS and incubated for 24 h at 37° C and 5% CO2. Cells were then infected with trypomastigotes at a ratio of 10 parasites per macrophage for 2 h. Free trypomastigotes were removed by successive washes using saline solution. Cultures were incubated in complete medium alone or with the compounds under investigation in different concentrations for 6 h. The medium was replaced with fresh medium and the plate was incubated for 3 days. Cells were fixed in absolute alcohol and the percentage of infected macrophages and the mean number of amastigotes/100 macrophages was determined by manual counting after hematoxylin and eosin staining in an optical microscope (Olympus). The percentage of infected macrophages and the relative number of amastigotes per macrophage was determined by counting 100 cells per slide.
(§1) The selectivity index (SI) was defined as the ratio of CC50 by EC50 (trypomastigotes). The one-way ANOVA followed by Bonferroni’s multiple comparison test was used to determine the statistical significance of the group comparisons in the in vitro infection and in vivo studies. Results were considered statistically significant when P < 0.05. All analyzes were performed using Graph Pad Prism version 5.01

The test system of series [2] is T. cruzi trypomastigotes (Y strain). In words: Cytotoxicity for trypomastigotes (viable parasite count, Neubauer chamber). Format: cell-based, Trypanosoma cruzi. Conditions: for activity at the screening threshold (in words): threshold 10 μΜ.
Source text: The trypanocidal activity of the 69 indirubins was initially evaluated against trypomastigotes (Y strain T. cruzi) through the determination of EC50 values. First, the collection of 69 indirubins (Table S1) was screened against the trypomastigote form of T. cruzi parasites at 10 μΜ and 1 μΜ.
The T. cruzi Y strain (DTU II) was used in this study. […] For in vivo analysis, bloodstream trypomastigotes used were obtained from BALB/c mice previously infected intraperitoneally with 10,000 Y trypomastigotes, and then bled after 8–12 days when they reached the peak of parasitaemia.
Trypomastigotes (4x10^5 cells/well) were seeded into 96-well plates and the indirubins were added at eight concentrations ranging from 0.08 to 10 µM, in triplicate. Plates were incubated for 24 h at 37 °C and 5% of CO2. Aliquots of each well were collected and the number of viable parasites, based on parasite integrity and motility, was assessed in a Neubauer chamber and compared to untreated cultures. Three independent experiments were performed.
as §1

The subject of another series is T. cruzi trypomastigotes. Description: Ultrastructural studies (TEM and SEM) of treated trypomastigotes. Format: cell-based, Trypanosoma cruzi. Conditions: 24 h; for morphological alterations by scanning electron microscopy: EC50 and 2 x EC50 concentration; for ultrastructural alterations by transmission electron microscopy: EC50 concentration. As for the experimental part: Parasites were then fixed with 2% formaldehyde and 2.5% glutaraldehyde in sodium cacodylate buffer (0.1 M, pH 7.2) for 1 h at room temperature. After fixation, parasites were washed 3 times with sodium cacodylate buffer (0.1 M, pH 7.2), and post-fixed with a 1.0 % solution of osmium tetroxide containing 0.8% potassium ferrocyanide (Sigma-Aldrich; Catalog number: P3289) for 1 h. Cells were subsequently dehydrated in increasing concentrations of acetone (30, 50, 70, 90 and 100%) for 10 min at each step and embedded in polybed resin (PolyScience; Catalog number: 00552–500). Ultrathin sections on copper grids were contrasted with uranyl acetate and lead citrate and observed under a ZEISS 109 transmission electron microscope. For scanning electron microscopy, trypomastigotes treated and fixed in the same conditions were washed in 0.1 M cacodylate buffer, and allowed to adhere in coverslips pre-coated with poly-L-lysine (Sigma-Aldrich; Catalog number: P4707). Cells were then post-fixed with a solution of osmium tetroxide containing 0.8% of potassium ferrocyanide for 30 min and dehydrated in crescent concentrations of ethanol (30, 50, 70, 90 and 100%). The samples were dried until the critical point, metallized with gold and analyzed in a JEOL JSM-6390LV scanning electron microscope. Two independent experiments were performed.

Series [3] concerns Y Trypanosoma cruzi strain. In words: Infection in mice (acute Chagas disease model). Type of series: in vivo, BALB/c mice. Conditions: for Mortality: dead/total, monitored for 30 days after treatment; for % Blood parasitemia reduction in mice at 12 dpi: daily for 5 days from day 5 of infection, versus vehicle group. As for the experimental part:
Female BALB/c mice (18–22 g) were infected with bloodstream trypomastigotes by intraperitoneal inoculation of 10^4 parasites in 100 µL of saline solution and then mice were randomly divided in groups (six animals per group). Before starting the treatment on the fifth day post infection, the infection was confirmed in all animals where on average 0.4 × 10^6 parasites per ml of blood were found. Thus, after day 5 of infection, treatment with 20 mg/kg weight of indirubins 10, 11, 17 and 32 were given orally for five consecutive days. For the control group, benznidazole was given orally at dose of 100 mg/kg weight. Saline containing 20% DMSO was used as a vehicle and administrated on untreated and infected group. Infection was monitored daily by counting the number of motile parasites in 5 µL of fresh blood sample drawn from the lateral tail veins, as recommended by standard protocol. Survival of mice was monitored for 30 days after treatment.

Series [4] can be described thus: In vivo toxicity: mortality, behaviour, serum and urine renal and hepatic markers. Particulars: mice, 10 or 20 mg/Kg for 5 consecutive days, up to 3 months post treatment.
Protocol: (§3) Thus, the highest dose was selected (20 mg/kg) and administrated, as described in material and methods section.
(§4) The analysis was performed in 6 mice per group.
For series [5] the following is noted: mouse, in vivo, 20 mg/kg.
Protocol: as §3, §4
The subject of series [6] is murine macrophages J774.1. Description: Cytotoxicity to mammalian cells (Alamar Blue). Type of series: cell-based, mouse. How it is done: (§2) Mouse macrophages (J774.1 cell line) were seeded into 96-well plates at a cell number 1 × 10^4 cells/well in DMEM medium supplemented with 10 % of FBS and incubated for 24 h at 37°C and 5% CO2. Samples were then added at eight concentrations (ranging from 0.078 to 10 µM) in triplicate, and incubated for 72 h, followed by the addition of 20 µL/well of Alamar Blue (Invitrogen; Catalog number: DAL1025). Colorimetric readings were performed 24 h later at 570 and 600 nm. CC50 values were calculated using data-points gathered from three independent experiments. Benznidazole was tested in concentrations ranging from 0.78 to 100 µM.
as §1

Series [7] is described as follows: Cytotoxicity to mammalian cells (Alamar Blue). Format: cell-based, mouse. Particulars: mouse, J774.1 macrophage cells; J774.1 cell viability, 72 h post-treatment. As for the experimental part:
as §2, §1

The mark [8] stands for this setting: trypomastigotes, 24 h post-treatment, mean ± SD of three experiments, read-out: EC50 Try.
Setting [9] is: 20 mg/Kg orally, daily for 5 days.
[10] abbreviates: 100 mg/Kg orally, daily for 5 days.
Setting [11] is: Table S1, 69 indirubin analogues, read-out: EC50 in T.cruzi trypomastigotes.

Like-named read-outs stand apart in the source and are kept apart here. Marks after values point to notes of the source that are not given here.

In series [1], 3ʹpiperazine-6-BIO [Compound 11] displayed an EC50 of 0.22 µM. Besides, the EC50 in series [2] (setting [8]) amounted to 0.25 µM. Besides, in the series on T. cruzi trypomastigotes, the “morphological alterations by scanning electron microscopy” value (from here on “morphological alterations”) is on record as “extensive loss of plasma membrane integrity” and the “ultrastructural alterations by transmission electron microscopy” value (from here on “ultrastructural alterations”) is given as “appearance of myelin figures”. Also, in the series with T. cruzi trypomastigotes (listed as compound 11), the “morphological alterations” value is “alterations in cell shape and loss of plasma membrane integrity”; the “ultrastructural alterations” value is recorded as “DNA degradation with pyknotic nuclei”. Also, in series [3] (setting [9]), the “effect on mortality (in words)” value is listed as “protective effect” and the Mortality is recorded as 1/6. Also, the “signs of toxicity or mortality (in words)” value in series [4] was “no signs of toxicity”. In addition, in series [5], the “Blood Serum Alanine Aminotransferase (ALT)” value was found to be 29±2 U/I, the “Blood Serum Aspartate Aminotransferase (AST)” value was found to be 135.5±10.5 U/I, the “Blood Serum C-Reactive Protein (CRP)” value was <0.02 mg/dL and the “Blood Serum Creatinine” value was determined as 0.385 ± 0.015 mg/dL. For the same compound, in series [5], the “Urine (24h) Creatinine” value is on record as 63±8, the “Urine (24h) Microalbumin (Urine Albumin)” value is 9 ± 1 mg/L and the “Urine (24h) Urine albumin to creatinine ratio (ACR)” value turned out to be 0.142.
With 3ʹpyrrolidine-6BIO [Compound 17], the EC50 in series [1] was 0.9 µM. For the same compound, the EC50 in series [2] (setting [8]) was 0.44 µM. Also, in series [6], the “cytotoxicity against murine macrophages J774.1 (in words)” value is reported as “lower cytotoxicity”. In addition, it took 10 µM to reach half-maximal cytotoxicity in series [6] (J774.1 cell viability, 72 h post-treatment) (CC50). For the same compound, in the series with T. cruzi trypomastigotes, the “morphological alterations” value is “extensive loss of plasma membrane integrity” and the “ultrastructural alterations” value is on record as “appearance of myelin figures”. Besides, the “ultrastructural alterations” value with T. cruzi trypomastigotes (listed as compound 17) is listed as “DNA degradation with pyknotic nuclei”. Moreover, in series [3] (setting [9]), the “effect on mortality (in words)” value is recorded as “protective effect” and the Mortality was 1/6*.
Regarding `O=C(Cn1ccnc1[N+](=O)[O-])NCc1ccccc1` [Benznidazole, reference compound], the EC50 came to 13.4 µM in series [1] (Trypanosoma cruzi, Macrophage) and 11.3 µM in series [2] (Trypanosoma cruzi, 24 h, trypomastigotes, 24 h post-treatment, mean ± SD of three experiments, read-out: EC50 Try.). In series [7], the CC50 at 72 h was > 100 µM. This compound also came in with a survival rate in series [3] (setting [10]) of 100%. Besides, the “% Blood parasitemia reduction in mice at 12 dpi” value in series [3] (100 mg/Kg orally) was > 99* %; in series [3] (100 mg/Kg orally, listed as benznidazole) it was > 99%. In addition, the Mortality in series [3] (setting [10]) was 0/6*.
Consider `Cc1cc2c(cc1Br)NC(=O)C2=C1Nc2ccccc2C1=NO` [Compound 5-Me-6-BIO, 6-br-5methylindirubin-3ʹoxime], for which, in series [2] (setting [11]), the EC50 is > 10 µM. The “activity at the screening threshold (in words)” value in series [2] (trypomastigotes) is reported as “did not exhibit any activity”.
With `O=C1Nc2cc(Br)ccc2C1=C1Nc2ccccc2C1=NO` [Compound 6BIO, 3'oxime-6-bromoindirubin], in series [2] (setting [11]), the EC50 is > 10 µM. In addition, in series [2] (trypomastigotes), the “activity at the screening threshold (in words)” value is given as “did not exhibit any activity”.
Take `O=C1Nc2c(Br)cccc2C1=C1Nc2ccccc2C1=O` [Compound 20]: in series [2] (setting [11]), the EC50 is > 10 µM.
On the same count and under the same terms, the result for `O=C1Nc2c(Br)cccc2C1=C1Nc2ccccc2C1=NO` [Compound 21] reads > 10 µM; that for `O=C1Nc2c(cccc2C(F)(F)F)C1=C1Nc2ccccc2C1=NO` [Compound 27], > 10 µM; that for `O=C1Nc2c(cccc2C(F)(F)F)C1=C1Nc2ccccc2C1=O` [Compound 36], > 10 µM.
As for `O=C1Nc2cc(N3CCNCC3)c([N+](=O)[O-])cc2C1=C1Nc2ccccc2C1=NO` [Compound 45], the half-maximal effective concentration (EC50) in series [2] (setting [11]) was > 10 µM.
Still for that read-out and setting: the result for `CC(=O)O/N=C1/C(=C2/C(=O)Nc3cc(Br)ccc32)Nc2ccccc21` [Compound 50] reads > 10 µM; that for `O=C1Nc2cc(Br)c([N+](=O)[O-])cc2C1=C1Nc2ccccc2C1=NO` [Compound 51], > 10 µM; that for `Nc1cc2c(cc1Br)NC(=O)C2=C1Nc2ccccc2C1=NO` [Compound 52], > 10 µM.
Still for that read-out and setting: the result for `Nc1cc2c(cc1Br)NC(=O)C2=C1Nc2ccccc2C1=O` [Compound 53] reads > 10 µM; that for `O=C1Nc2cc(Br)c([N+](=O)[O-])cc2C1=C1Nc2ccccc2C1=O` [Compound 54], > 10 µM; that for `O=C1Nc2cc(Br)ccc2C1=C1Nc2ccccc2C1=O` [Compound 55], > 10 µM.
The same measure, in the same setting: the result for `CCOP(=O)(OCC)ON=C1C(=C2C(=O)Nc3cc(Br)ccc32)Nc2ccccc21` [Compound 56] reads > 10 µM; that for `Cc1cc2c(cc1Br)NC(=O)C2=C1Nc2ccccc2C1=O` [Compound 57], > 10 µM.
In the case of `CN1C(=O)C(=C2Nc3ccccc3C2=NO)c2ccc(Br)cc21` [Compound 58], in series [2] (setting [11]), the EC50 is > 10 µM.
On the same count and under the same terms, the result for `CC(=O)ON=C1C(=C2C(=O)N(C)c3cc(Br)ccc32)Nc2ccccc21` [Compound 59] reads > 10 µM; that for `O=C1Nc2ccc(Br)cc2C1=C1Nc2ccccc2C1=O` [Compound 60], > 10 µM.
Regarding `O=C1Nc2ccc(Br)cc2C1=C1Nc2ccccc2C1=NO` [Compound 61], the EC50 in series [2] (setting [11]) was > 10 µM.
With `Nc1ccc2c(c1)C(=C1Nc3ccccc3C1=NO)C(=O)N2` [Compound 62], the EC50 in series [2] (setting [11]) is > 10 µM.
Turning to `O=C1Nc2cc(F)ccc2C1=C1Nc2ccccc2C1=NO` [Compound 63], the EC50 in series [2] (setting [11]) was > 10 µM.
On the same count and under the same terms, the result for `O=C1Nc2cc(Cl)ccc2C1=C1Nc2ccccc2C1=NO` [Compound 64] reads > 10 µM.
Regarding `O=C1Nc2cc(I)ccc2C1=C1Nc2ccccc2C1=NO` [Compound 65], in series [2] (setting [11]), the EC50 is > 10 µM.
On to `O=C1Nc2ccccc2/C1=C1/Nc2ccccc2C1=O` [Compound 66], for which the EC50 in series [2] (setting [11]) is > 10 µM.
Same read-out and setting: as for `CON=C1C(=C2C(=O)Nc3ccccc32)Nc2ccccc21` [Compound 67], the figure is > 10 µM.

For the origin of these results see paper PMC7000199, “Indirubin derivatives are potent and selective anti-Trypanosoma cruzi agents” (Virulence, 2018).
